Key:
[1] = biological target: T1, human Nav1.5 channels stably expressed in HEK 293 cells (Homo sapiens, UniProt Q14524); assay: PatchXpress 7000 automated patch-clamp, sodium current; type: cell-based; details: selectivity over Nav1.5
T1 construct: expressed in transfected cells
How it was run: (§1)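 IC50 values came from Hill-equation fits of rundown-corrected inhibition. PatchXpress recordings at 22° C held cells 20 mV negative to V0.5 inact and applied 10 Hz trains of 30 ms steps to −20 mV (Nav1.7) or an 8000 ms prepulse 7 mV positive to V0.5 inact. […]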

[2] = biological target: T2, human Nav1.7 channels stably expressed in HEK 293 cells (Homo sapiens, UniProt Q15858); assay: as above; type: cell-based; details: 22° C., read-out: potency for the Nav 1.7 sodium ion channel (as measured by PatchXpress)
T2 construct: expressed in transfected cells
How it was run: as §1

T1 sequence (Q14524 whole entry): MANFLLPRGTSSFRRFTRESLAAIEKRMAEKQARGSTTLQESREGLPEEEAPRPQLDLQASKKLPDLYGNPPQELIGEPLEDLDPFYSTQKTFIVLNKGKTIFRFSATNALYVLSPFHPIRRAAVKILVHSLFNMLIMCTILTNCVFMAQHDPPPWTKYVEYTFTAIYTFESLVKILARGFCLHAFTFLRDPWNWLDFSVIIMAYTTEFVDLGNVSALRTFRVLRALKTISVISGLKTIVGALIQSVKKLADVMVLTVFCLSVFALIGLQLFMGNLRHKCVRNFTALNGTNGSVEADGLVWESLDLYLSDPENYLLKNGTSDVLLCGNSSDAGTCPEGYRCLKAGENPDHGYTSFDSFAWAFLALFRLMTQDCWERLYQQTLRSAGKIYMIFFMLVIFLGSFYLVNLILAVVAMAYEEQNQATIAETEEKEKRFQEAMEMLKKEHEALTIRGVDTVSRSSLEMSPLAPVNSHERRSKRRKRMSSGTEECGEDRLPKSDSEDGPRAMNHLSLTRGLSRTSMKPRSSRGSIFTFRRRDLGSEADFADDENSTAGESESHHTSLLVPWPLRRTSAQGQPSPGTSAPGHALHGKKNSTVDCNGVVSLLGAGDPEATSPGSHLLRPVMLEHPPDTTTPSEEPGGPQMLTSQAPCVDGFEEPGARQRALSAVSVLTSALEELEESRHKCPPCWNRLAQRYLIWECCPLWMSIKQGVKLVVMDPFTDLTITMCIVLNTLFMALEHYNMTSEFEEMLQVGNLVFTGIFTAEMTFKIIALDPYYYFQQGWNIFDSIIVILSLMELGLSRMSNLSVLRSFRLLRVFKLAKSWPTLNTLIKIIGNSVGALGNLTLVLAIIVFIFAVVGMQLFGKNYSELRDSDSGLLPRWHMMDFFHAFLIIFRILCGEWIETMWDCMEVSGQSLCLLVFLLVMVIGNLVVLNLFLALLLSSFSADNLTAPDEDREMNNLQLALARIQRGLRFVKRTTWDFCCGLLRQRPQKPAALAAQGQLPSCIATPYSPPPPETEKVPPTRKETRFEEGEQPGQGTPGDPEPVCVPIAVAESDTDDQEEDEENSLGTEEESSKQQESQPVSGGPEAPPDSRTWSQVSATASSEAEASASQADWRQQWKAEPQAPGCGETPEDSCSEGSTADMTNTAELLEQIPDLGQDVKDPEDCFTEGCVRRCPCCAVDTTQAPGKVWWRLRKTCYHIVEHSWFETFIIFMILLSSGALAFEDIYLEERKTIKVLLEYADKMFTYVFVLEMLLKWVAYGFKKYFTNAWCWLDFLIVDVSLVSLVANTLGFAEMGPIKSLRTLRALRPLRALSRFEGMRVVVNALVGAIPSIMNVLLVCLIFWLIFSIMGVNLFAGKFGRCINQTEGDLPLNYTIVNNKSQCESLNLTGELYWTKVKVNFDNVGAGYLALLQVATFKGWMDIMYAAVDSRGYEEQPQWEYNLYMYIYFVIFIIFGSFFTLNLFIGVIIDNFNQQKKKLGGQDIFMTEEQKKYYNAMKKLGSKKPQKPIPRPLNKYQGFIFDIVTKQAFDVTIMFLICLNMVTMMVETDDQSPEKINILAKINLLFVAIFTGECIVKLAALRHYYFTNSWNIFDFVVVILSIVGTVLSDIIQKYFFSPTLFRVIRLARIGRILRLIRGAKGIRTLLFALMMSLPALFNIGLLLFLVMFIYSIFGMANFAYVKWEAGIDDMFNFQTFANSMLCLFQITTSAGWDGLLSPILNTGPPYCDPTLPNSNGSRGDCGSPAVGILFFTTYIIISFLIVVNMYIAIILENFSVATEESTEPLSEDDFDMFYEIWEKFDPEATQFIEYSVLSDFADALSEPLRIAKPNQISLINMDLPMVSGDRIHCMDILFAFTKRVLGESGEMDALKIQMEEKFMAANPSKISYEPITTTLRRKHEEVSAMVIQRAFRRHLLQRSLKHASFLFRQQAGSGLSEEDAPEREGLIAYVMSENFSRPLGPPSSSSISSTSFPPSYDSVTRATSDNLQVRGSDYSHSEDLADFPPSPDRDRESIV
T2 sequence (Q15858 whole entry): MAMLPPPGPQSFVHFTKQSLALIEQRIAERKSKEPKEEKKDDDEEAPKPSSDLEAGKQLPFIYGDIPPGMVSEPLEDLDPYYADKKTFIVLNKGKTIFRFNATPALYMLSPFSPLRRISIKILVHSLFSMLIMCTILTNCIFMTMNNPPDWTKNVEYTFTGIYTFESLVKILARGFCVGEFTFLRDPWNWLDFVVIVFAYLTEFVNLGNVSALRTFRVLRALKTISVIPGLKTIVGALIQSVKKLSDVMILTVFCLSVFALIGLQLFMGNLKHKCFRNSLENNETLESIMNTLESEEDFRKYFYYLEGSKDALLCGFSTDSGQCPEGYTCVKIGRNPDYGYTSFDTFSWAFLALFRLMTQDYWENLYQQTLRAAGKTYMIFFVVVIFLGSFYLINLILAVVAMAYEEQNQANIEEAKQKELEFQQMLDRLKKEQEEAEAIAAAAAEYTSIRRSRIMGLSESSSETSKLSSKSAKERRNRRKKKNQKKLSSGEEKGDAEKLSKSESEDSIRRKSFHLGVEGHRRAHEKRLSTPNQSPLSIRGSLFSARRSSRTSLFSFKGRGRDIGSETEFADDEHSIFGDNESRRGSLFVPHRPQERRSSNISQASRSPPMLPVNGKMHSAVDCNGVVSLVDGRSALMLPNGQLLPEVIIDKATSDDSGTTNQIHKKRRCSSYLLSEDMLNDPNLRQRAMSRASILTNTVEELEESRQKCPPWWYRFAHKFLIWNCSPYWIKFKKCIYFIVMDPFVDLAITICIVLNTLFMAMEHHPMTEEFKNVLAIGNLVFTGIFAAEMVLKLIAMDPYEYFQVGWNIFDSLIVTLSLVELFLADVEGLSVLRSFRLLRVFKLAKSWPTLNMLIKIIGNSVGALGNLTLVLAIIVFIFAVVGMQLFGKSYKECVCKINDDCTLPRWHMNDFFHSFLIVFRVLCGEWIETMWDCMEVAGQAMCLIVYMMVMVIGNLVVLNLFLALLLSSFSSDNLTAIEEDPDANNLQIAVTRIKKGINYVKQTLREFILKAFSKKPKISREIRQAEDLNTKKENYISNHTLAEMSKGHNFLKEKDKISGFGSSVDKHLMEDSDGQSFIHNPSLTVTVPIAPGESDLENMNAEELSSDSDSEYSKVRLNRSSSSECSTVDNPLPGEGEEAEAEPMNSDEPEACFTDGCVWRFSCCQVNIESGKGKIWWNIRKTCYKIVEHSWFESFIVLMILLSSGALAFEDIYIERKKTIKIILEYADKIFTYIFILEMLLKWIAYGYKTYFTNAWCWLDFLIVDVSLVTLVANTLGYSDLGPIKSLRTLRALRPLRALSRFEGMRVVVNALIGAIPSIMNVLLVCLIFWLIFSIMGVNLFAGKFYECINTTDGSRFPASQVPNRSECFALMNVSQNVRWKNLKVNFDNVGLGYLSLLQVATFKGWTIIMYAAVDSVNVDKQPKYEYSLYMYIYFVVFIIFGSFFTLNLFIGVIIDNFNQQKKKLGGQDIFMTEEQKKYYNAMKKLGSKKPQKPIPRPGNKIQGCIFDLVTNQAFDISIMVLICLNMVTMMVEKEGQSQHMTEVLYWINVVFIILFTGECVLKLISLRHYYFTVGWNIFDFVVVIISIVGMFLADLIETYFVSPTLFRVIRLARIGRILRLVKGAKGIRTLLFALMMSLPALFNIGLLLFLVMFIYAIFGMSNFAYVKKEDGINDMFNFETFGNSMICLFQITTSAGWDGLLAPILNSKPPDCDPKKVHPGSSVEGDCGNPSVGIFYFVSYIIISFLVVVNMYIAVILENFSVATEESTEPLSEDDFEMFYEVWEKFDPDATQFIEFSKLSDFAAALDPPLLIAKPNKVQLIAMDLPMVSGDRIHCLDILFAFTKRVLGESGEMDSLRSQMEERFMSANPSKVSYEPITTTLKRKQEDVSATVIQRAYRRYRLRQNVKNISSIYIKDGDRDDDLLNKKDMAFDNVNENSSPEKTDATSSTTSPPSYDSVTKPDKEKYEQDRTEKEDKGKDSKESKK

SMILES | ratio of Nav 1.5:Nav 1.7 potency, determined by PatchXpress measurement [1] | IC50 [2] [nM]
C[C@H](c1ccccc1C#CCNS(C)(=O)=O)n1c(=O)oc2cc(S(=O)(=O)Nc3ncns3)c(Br)cc21 [Compound 36-4, 5-bromo-3-[(1R)-1-(2-{3-[(methylsulfonyl)amino]prop-1-yn-1-yl}phenyl)ethyl]-2-oxo-N-1,2,4-thiadiazol-5-yl-2,3-dihydro-1,3-benzoxazole-6-sulfonamide] | 36 | 169
C[C@H](c1cccc2c1CN(S(C)(=O)=O)CC2)n1c(=O)oc2cc(S(=O)(=O)Nc3ncns3)c(F)cc21 [Compound 36-5, 5-fluoro-3-{(1R)-1-[2-(methylsulfonyl)-1,2,3,4-tetrahydroisoquinolin-8-yl]ethyl}-2-oxo-N-1,2,4-thiadiazol-5-yl-2,3-dihydro-1,3-benzoxazole-6-sulfonamide] | 35 | 155
C[C@H](c1ccccc1C#CCNS(C)(=O)=O)n1c(=O)oc2cc(S(=O)(=O)Nc3ncns3)c(Cl)cc21 [Compound 36-6, 5-chloro-3-[(1R)-1-(2-{3-[(methylsulfonyl)amino]prop-1-yn-1-yl}phenyl)ethyl]-2-oxo-N-1,2,4-thiadiazol-5-yl-2,3-dihydro-1,3-benzoxazole-6-sulfonamide] | 175 | 121
C[C@H](c1cccc2c1CC(NS(C)(=O)=O)CC2)n1c(=O)oc2cc(S(=O)(=O)Nc3ncns3)c(F)cc21 (stereo partly drawn) [Compound 36-7, 5-fluoro-3-[(1R)-1-{7-[(methylsulfonyl)amino]-5,6,7,8-tetrahydronaphthalen-1-yl)ethyl]-2-oxo-N-1,2,4-thiadiazol-5-yl-2,3-dihydro-1,3-benzoxazole-6-sulfonamide] | 107 | 27
O=c1oc2cc(S(=O)(=O)Nc3ncns3)c(F)cc2n1[C@H](CCF)c1ccccc1 [Compound 37-3] | 39 | 132
CCc1cc2c(cc1S(=O)(=O)Nc1ncns1)oc(=O)n2[C@H](C)c1ccccc1 [Compound 38-2, 5-ethyl-2-oxo-3-[(1R)-1-phenylethyl]-N-1,2,4-thiadiazol-5-yl-2,3-dihydro-1,3-benzoxazole-6-sulfonamide] | 17 | 94
Cc1cc2c(cc1S(=O)(=O)Nc1ncns1)oc(=O)n2[C@H](C)c1ccccc1 [Compound 38-3] | 37 | 43
Nc1ccc2c(c1)C(n1c(=O)oc3cc(S(=O)(=O)Nc4ncns4)c(F)cc31)CCC2 (stereo not shown) [Compound 39-3] | 1196 | 41
O=c1oc2cc(S(=O)(=O)Nc3ncns3)c(F)cc2n1C1CC2(COC2)Oc2ccccc21 (stereo not shown) [Compound 39-4, 3-(3,4-dihydrospiro[chromene-2,3′-oxetan]-4-yl)-5-fluoro-2-oxo-N-1,2,4-thiadiazol-5-yl-2,3-dihydro-1,3-benzoxazole-6-sulfonamide] | 58 | 312
Cc1cccc2c1CCCC2n1c(=O)oc2cc(S(=O)(=O)Nc3ncns3)c(F)cc21 (stereo not shown) [Compound 39-5, 5-fluoro-3-(5-methyl-1,2,3,4-tetrahydronaphthalen-1-yl)-2-oxo-N-1,2,4-thiadiazol-5-yl-2,3-dihydro-1,3-benzoxazole-6-sulfonamide] | 14 | 261
O=c1oc2cc(S(=O)(=O)Nc3ncns3)c(F)cc2n1C1CCOc2ccccc21 (stereo not shown) [Compound 39-6, 3-(3,4-dihydro-2H-chromen-4-yl)-5-fluoro-2-oxo-N-1,2,4-thiadiazol-5-yl-2,3-dihydro-1,3-benzoxazole-6-sulfonamide] | 110 | 221
CC1(C)CC(n2c(=O)oc3cc(S(=O)(=O)Nc4ncns4)c(F)cc32)c2ccccc2O1 (stereo not shown) [Compound 39-7, 3-(2,2-dimethyl-3,4-dihydro-2H-chromen-4-yl)-5-fluoro-2-oxo-N-1,2,4-thiadiazol-5-yl-2,3-dihydro-1,3-benzoxazole-6-sulfonamide] | 137 | 218
O=c1oc2cc(S(=O)(=O)Nc3ncns3)c(F)cc2n1C1COCc2ccccc21 (stereo not shown) [Compound 39-8, 3-(3,4-dihydro-1H-isochromen-4-yl)-5-fluoro-2-oxo-N-1,2,4-thiadiazol-5-yl-2,3-dihydro-1,3-benzoxazole-6-sulfonamide] | 29 | 204
O=C(c1ccccc1)N1CCC2(CC1)CC(n1c(=O)oc3cc(S(=O)(=O)Nc4ncns4)c(F)cc31)c1cc(F)ccc1O2 (stereo not shown) [Compound 39-9, 5-fluoro-3-[6-fluoro-1′-(phenylcarbonyl)-3,4-dihydrospiro[chromene-2,4′-piperidin]-4-yl]-2-oxo-N-1,2,4-thiadiazol-5-yl-2,3-dihydro-1,3-benzoxazole-6-sulfonamide] | 54 | 168
O=c1oc2cc(S(=O)(=O)Nc3ncns3)c(F)cc2n1C1CCCc2ccccc21 (stereo not shown) [Compound 39-10, 5-fluoro-2-oxo-3-(1,2,3,4-tetrahydronaphthalen-1-yl)-N-1,2,4-thiadiazol-5-yl-2,3-dihydro-1,3-benzoxazole-6-sulfonamide] | 199 | 168
O=c1oc2cc(S(=O)(=O)Nc3ncns3)c(F)cc2n1C1CC2(CCN(Cc3ccccc3)CC2)Oc2ccccc21 (stereo not shown) [Compound 39-11, 3-(1′-benzyl-3,4-dihydrospiro[chromene-2,4′-piperidin]-4-yl)-5-fluoro-2-oxo-N-1,2,4-thiadiazol-5-yl-2,3-dihydro-1,3-benzoxazole-6-sulfonamide] | 114 | 166
CC1(C)CCC(n2c(=O)oc3cc(S(=O)(=O)Nc4ncns4)c(F)cc32)c2ccccc21 (stereo not shown) [Compound 39-12, 3-(4,4-dimethyl-1,2,3,4-tetrahydronaphthalen-1-yl)-5-fluoro-2-oxo-N-1,2,4-thiadiazol-5-yl-2,3-dihydro-1,3-benzoxazole-6-sulfonamide] | 38 | 159
O=c1oc2cc(S(=O)(=O)Nc3ncns3)c(F)cc2n1C1CCOc2ccc(F)cc21 (stereo not shown) [Compound 39-13, 5-fluoro-3-(6-fluoro-3,4-dihydro-2H-chromen-4-yl)-2-oxo-N-1,2,4-thiadiazol-5-yl-2,3-dihydro-1,3-benzoxazole-6-sulfonamide] | 295 | 112
O=c1oc2cc(S(=O)(=O)Nc3ncns3)c(F)cc2n1[C@@H]1CC2(CCC2)Oc2ccccc21 [Compound 39-14, 3-[(4R)-3,4-dihydrospiro[chromene-2,1′-cyclobutan]-4-yl]-5-fluoro-2-oxo-N-1,2,4-thiadiazol-5-yl-2,3-dihydro-1,3-benzoxazole-6-sulfonamide] | 99 | 60
O=c1oc2cc(S(=O)(=O)Nc3ncns3)c(F)cc2n1[C@@H]1C[C@@H](c2ccccc2)Oc2ccccc21 [Compound 39-15, 5-fluoro-2-oxo-3-[(2S,4R)-2-phenyl-3,4-dihydro-2H-chromen-4-yl]-N-1,2,4-thiadiazol-5-yl-2,3-dihydro-1,3-benzoxazole-6-sulfonamide] | 36 | 54

From US9273040B2 (Merck Sharp & Dohme Corp., priority 2011, dated 2016)
